Test results as given in article PMC3026091 (Antiviral research, 2010).

Assays:
DEN2V NS2B-NS3pro = assay type: biochemical, dengue 2 virus (strain TSV01); conditions: mechanism of inhibition of DEN2V NS2B-NS3pro, Dynafit model selection
[1] = target: T1, Bovine pancreatic trypsin (Bos taurus, UniProt P00760); experiment: Steady-state kinetics of inhibitors of trypsin; assay type: biochemical; conditions: BOC-GRR-AMC fluorogenic substrate; for Mechanism (trypsin): mechanism of trypsin inhibition
T1 sequence (P00760 24-246): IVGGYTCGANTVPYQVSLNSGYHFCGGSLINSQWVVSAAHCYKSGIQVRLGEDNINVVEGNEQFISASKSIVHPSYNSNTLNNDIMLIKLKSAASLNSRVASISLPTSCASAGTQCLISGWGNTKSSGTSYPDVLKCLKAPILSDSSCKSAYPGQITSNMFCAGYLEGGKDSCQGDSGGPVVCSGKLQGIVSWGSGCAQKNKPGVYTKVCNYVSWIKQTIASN

[2] = target: T1, Bovine pancreatic trypsin; experiment: Trypsin inhibition assay with chromogenic BAPNA substrate; assay type: biochemical; conditions: analog 100 µM, trypsin 60 µM, BAPNA 500 µM; data not shown

O=C1c2c(O)ccc([N+](=O)[O-])c2C(=O)c2c([N+](=O)[O-])ccc(O)c21 [ARDP0006]
Mechanism (DEN2V NS2B-NS3pro): competitive inhibition model
Mechanism (trypsin) [1]: uncompetitive trypsin inhibitor
Ki ([1]; read-out: Ki2 trypsin, 50 nM trypsin): 13 ± 0.1 µM
Inhibition of trypsin cleavage of the chromogenic substrate BAPNA [2]: inhibited trypsin cleavage of the fluorogenic substrate but not the chromogenic substrate

N=C(N)c1ccccc1 [Benzamidine, reference compound]
Mechanism (trypsin) [1]: Competitive
